The target of series [1] is T1, squalene synthase (Homo sapiens, UniProt P37268).
T1 construct: endogenous in cells; host or cells: HepG2 (human hepatic cancer cells); sediment of the 105000 x g centrifugation (microsomal fraction)
T1 sequence (P37268 1-417): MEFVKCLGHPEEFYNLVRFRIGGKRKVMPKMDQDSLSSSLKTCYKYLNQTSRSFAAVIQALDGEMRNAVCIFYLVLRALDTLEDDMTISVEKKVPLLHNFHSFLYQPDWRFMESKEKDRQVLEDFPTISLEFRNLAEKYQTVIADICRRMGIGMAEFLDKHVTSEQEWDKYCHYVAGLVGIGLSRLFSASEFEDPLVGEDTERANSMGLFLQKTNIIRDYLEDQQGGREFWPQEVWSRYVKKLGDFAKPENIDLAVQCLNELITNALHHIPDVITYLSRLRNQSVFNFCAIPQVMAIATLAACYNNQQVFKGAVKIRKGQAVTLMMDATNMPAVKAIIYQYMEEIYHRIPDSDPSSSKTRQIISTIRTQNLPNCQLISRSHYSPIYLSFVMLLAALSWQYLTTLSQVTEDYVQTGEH
Kind of series: Squalene synthase inhibiting activity (Test Example 1). The format is biochemical. The note with it: enzyme solution from human hepatic cancer cell HepG2; 5 μM [1-3H] farnesyl pyrophosphate, 37° C., 45 minutes; read-out: Inhibiting activity (IC50, 10^−9M). The protocol:
Squalene Synthase Inhibiting Activity
The squalene synthase inhibiting activity was measured using an enzyme solution obtained according to a preparing method described below as follows:
That is, an enzyme solution (protein 0.8 μg) prepared according to the following preparing method was added to a solution containing 5 μM [1-^3H] farnesyl pyrophosphate (specific activity […]), 1 mM NADPH (reduced type nicotinamide adenine dinucleotide phosphate), 5 mM MgCl2, 6 mM glutathione, 100 mM potassium phosphate buffer (pH 7.4) and a test drug (added as an aqueous solution or DMSO solution)(total amount 50 μl), which was reacted at 37° C. for 45 minutes. 150 μl of a mixed solution of chloroform and methanol (1:2) was added to stop the reaction, and 50 μl of chloroform and 50 μl of a 3N sodium hydroxide solution were added. 50 μl of the chloroform layer (lower layer) containing the reaction product, a main component of which is squalene, and 3 ml of toluene series liquid scintillator were mixed, and the radioactivity thereof was measured by a liquid scintillation counter.
The squalene synthase inhibiting activity was shown by the concentration at which 50% of the radioactivity […] into the chloroform layer (IC50, molar concentration (M)).
Preparation of Human Enzyme Solution
Human hepatic cancer cell HepG2 (about 1×10^9 cells) was grown in Dulbecco's modified Eagle medium (37° C., in the presence of 5%CO2) containing 10% bovine fetal serum, the resulting cells were suspended in 10 ml of ice-cooled buffer [100 mM potassium phosphate buffer (pH 7.4), 30 mM nicotinamide, 2.5 mM MgCl2], and ruptured by the ultrasonication (30 seconds, 2 times). The resulting sonicate was centrifuged at 10000× g for 20 minutes (4° C.). The resulting supernatant was centrifuged at 105000× g for 90 minutes (4° C.), then the sediment was suspended in an ice-cooled 100 mM potassium phosphate buffer (pH 7.4), and centrifuged again at 105000× g for 90 minutes (4° C.). This was suspended in an ice-cooled 100 mM potassium phosphate buffer (pH 7.4) (protein concentration about 4 mg/ml), which was used as an enzyme solution.

For 3 compounds, IC50 and melting point results are on record in patent US20030078251A1, “Benzoxazepinones and their use as squalene synthase inhibitors” (priority 2000, published 2003).

Molecules are shown by their SMILES.

The IC50 is the concentration at which inhibition is half-maximal. In general, melting point refers to the temperature, or range, at which the solid turns liquid. Regarding `COc1cccc([C@H]2O[C@H](CC(=O)Nc3cc(CCC(=O)O)ccc3C)C(=O)N(CC(C)(C)CO)c3ccc(Cl)cc32)c1OC` [Example 55, 3-[3-[[(3R,5S)-7-chloro-5-(2,3-dimethoxyphenyl)-1-(3-hydroxy-2,2-dimethylpropyl)-2-oxo-1,2,3,5-tetrahydro-4,1-benzoxazepin-3-yl]acetyl]amino-4-methylphenyl]propionic Acid], the melting point is 154 to 155 °C. Besides, in series [1], the IC50 was determined as 0.016 µM.

Compound `COc1cccc([C@H]2O[C@H](CC(=O)Nc3cccc(CCC(=O)O)c3)C(=O)N(CC(C)(C)C)c3ccc(Cl)cc32)c1OC` [Example 60, 3-[3-[[(3R,5S)-7-chloro-5-(2,3-dimethoxyphenyl)-1-neopentyl-2-oxo-1,2,3,5-tetrahydro-4,1-benzoxazepin-3-yl]acetyl]aminophenyl]propionic Acid] showed a melting point of 172 to 173 °C. Further, the IC50 in series [1] came out at 0.05 µM.

In the case of `COc1cccc([C@H]2O[C@H](CC(=O)NCc3ccc(CC(=O)O)cc3)C(=O)N(CC(C)(C)CO)c3ccc(Cl)cc32)c1OC` [Example 61, 4-[[[(3R,5S)-7-chloro-5-(2,3-dimethoxyphenyl)-1-(3-hydroxy-2,2-dimethylpropyl)-2-oxo-1,2,3,5-tetrahydro-4,1-benzoxazepin-3-yl]acetyl]aminomethyl]phenylacetic acid], the melting point was 129 to 132 °C. In addition, the IC50 in series [1] is 0.021 µM.
